Laboratory results as given in ChEMBL document CHEMBL3301458, “MMV Malaria Box hERG screening”.
Calls of active or inactive are those of the source. No rule for the calls is given here.

Experiments:
hERG (Kv11.1, KCNH2) [1] = molecular target: T1, hERG (Kv11.1, KCNH2) (Homo sapiens, UniProt Q12809); assay: in vitro
Description: MMV: Malaria Box compounds were tested for inhibition of the human ether a go-go related gene (hERG), Kv11.1 channel, using IonWorks 384-well patch clamp electrophysiology at 11.1uM (3 independent assay plates up to 12 cells per concentration).

hERG (Kv11.1, KCNH2) [2] = molecular target: T1, hERG (Kv11.1, KCNH2); assay: in vitro; remark: listed apart in the source
Description: MMV: Malaria Box compounds were tested for inhibition of the human ether a go-go related gene (hERG), Kv11.1 channel, using IonWorks 384-well patch clamp electrophysiology at 1.1uM (3 independent assay plates up to 12 cells per concentration).

T1 sequence (Q12809 whole entry): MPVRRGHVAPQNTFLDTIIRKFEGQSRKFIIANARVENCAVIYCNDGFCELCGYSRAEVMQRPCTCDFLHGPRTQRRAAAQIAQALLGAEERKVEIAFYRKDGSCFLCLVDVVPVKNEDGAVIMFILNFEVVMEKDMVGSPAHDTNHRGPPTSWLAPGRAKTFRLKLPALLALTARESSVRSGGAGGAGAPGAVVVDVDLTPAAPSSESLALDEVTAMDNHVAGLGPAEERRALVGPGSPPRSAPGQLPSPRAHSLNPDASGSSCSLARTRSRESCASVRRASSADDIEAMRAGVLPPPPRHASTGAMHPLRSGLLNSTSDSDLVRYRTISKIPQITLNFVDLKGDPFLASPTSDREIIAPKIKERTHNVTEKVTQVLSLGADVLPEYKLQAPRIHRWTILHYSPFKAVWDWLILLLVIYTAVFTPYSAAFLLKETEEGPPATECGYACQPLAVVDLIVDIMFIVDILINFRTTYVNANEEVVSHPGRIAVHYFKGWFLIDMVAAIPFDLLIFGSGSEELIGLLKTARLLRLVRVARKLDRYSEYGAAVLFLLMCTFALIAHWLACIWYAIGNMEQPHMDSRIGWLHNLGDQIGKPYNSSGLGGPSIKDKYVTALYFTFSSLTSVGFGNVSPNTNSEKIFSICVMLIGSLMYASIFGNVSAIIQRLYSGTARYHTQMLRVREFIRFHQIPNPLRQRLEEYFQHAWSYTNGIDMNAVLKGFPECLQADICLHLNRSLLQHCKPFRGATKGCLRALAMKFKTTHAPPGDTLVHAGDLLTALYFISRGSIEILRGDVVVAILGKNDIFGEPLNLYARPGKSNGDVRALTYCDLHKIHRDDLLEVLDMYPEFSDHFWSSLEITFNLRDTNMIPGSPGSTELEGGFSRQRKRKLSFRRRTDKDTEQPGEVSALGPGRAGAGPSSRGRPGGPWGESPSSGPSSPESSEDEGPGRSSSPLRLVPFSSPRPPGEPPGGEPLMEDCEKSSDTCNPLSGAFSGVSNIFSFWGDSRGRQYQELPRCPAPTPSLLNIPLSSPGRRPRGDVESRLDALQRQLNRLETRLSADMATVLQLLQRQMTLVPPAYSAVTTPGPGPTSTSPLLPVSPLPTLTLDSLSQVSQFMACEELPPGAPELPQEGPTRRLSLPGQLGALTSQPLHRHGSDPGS

| Compound | inhibition at 11.1 µM (hERG (Kv11.1, KCNH2) [1]) | inhibition at 1.1 µM (hERG (Kv11.1, KCNH2) [2]) |
| --- | --- | --- |
| Cc1cc(C)cc(Nc2cc(C)nc3nc(C(F)(F)F)nn23)c1 | 40% | 20% |
| O=C(CCc1ccccc1)c1ccccc1OCC(O)CN1CCCCC1 (stereo unspecified) | 17% (inactive) | 1% |
| Cc1cc(Nc2ccc3ccccc3c2)n2ncnc2n1 | 25% (inactive) | 9% |
| COc1ccc(-n2ccnc2SCC(=O)Nc2cc(C)ccc2C)c(OC)c1 | 29% | 5% |
| CCN1CCN(Cc2ccc(NC(=O)c3cc4ccc5cccnc5c4[nH]3)cc2)CC1 | 106% (active) | 41% |
| COc1cccc(Nc2nc(NCCO)c3ccccc3n2)c1 | 57% (active) | 18% |
| COc1ccc(C(=O)Nc2ccc3nc(N4CCCCC4)cc(C)c3c2)cc1OC | 96% | 63% |
| COCCNCC(O)Cn1c2ccc(Cl)cc2c2cc(Cl)ccc21 (stereo unspecified) | 83% (active) | 14% |
| COc1ccc(N2CCN(C(CNC(=O)C3CCCCC3)c3ccc4c(c3)OCO4)CC2)cc1 (stereo unspecified) | 51% (active) | 17% |
| O=C(NC1CCN(Cc2ccccc2)CC1)c1cc(-c2ccncc2)nc2ccc(Cl)cc12 | 72% (active) | 14% |
| COc1cccc(Nc2nc(N)c3ccccc3n2)c1 | 9% (inactive) | 10% |
| CCC(O)c1ccc(Br)cc1NC(=O)c1cccc(Cl)c1 (stereo unspecified) | 22% (inactive) | 13% |
| COc1ccc2nc(C)cc(Nc3cccc(O)c3)c2c1 | 83% (active) | 32% |
| COC(=O)c1ccc(C2C3=C(O)CC(c4ccc(F)cc4)CC3=Nc3ccccc3N2C(=O)c2ccccc2)cc1 (stereo unspecified) | 105% | 98% |
| CN(C)CCCNCc1ccc(-c2ccc(F)c(Cl)c2)o1 | 48% | 3% |
| Cn1c(=O)c2cc(C(=O)NCCCN3CCCCCC3)sc2c2ccccc21 | 6% (inactive) | -5% |
| Cc1[nH]c(-c2ccc(F)cc2)cc1C(=O)NC1CCN(Cc2ccccc2)CC1 | 96% | 55% |
| Cc1sc2ncnc(Sc3nc4ccccc4[nH]3)c2c1C | 16% (inactive) | 8% |
| CCOc1cc2c(cc1OCC)C(c1cc(OC)c(O)cc1Cl)NCC2 (stereo unspecified) | 30% | 10% |
| CC1CN(C(=O)c2sc3ccccc3c2Cl)CC(C)O1 (stereo unspecified) | 10% (inactive) | 4% |
| Oc1ccccc1CN1CCN(C(c2ccccc2)c2ccccc2)CC1 | 12% (inactive) | 13% |
| c1ccc2c(NCCCCCCNc3c4c(nc5ccccc35)CCCC4)c3c(nc2c1)CCCC3 | 102% (active) | 36% |
| CCC1(C)CC(CCNCc2ccccc2O)(c2ccc(C)cc2)CCO1 (stereo unspecified) | 73% (active) | 2% |
| OC(CNC1CCCCC1)Cn1c2ccccc2c2ccccc21 (stereo unspecified) | 23% (inactive) | 14% |
| O=C(NCCCN1CCC(N2CCCCC2)CC1)C1=Cc2cc(Br)ccc2OC1 | 89% (active) | 5% |

| Compound | inhibition at 11.1 µM (hERG (Kv11.1, KCNH2) [1]) | inhibition at 1.1 µM (hERG (Kv11.1, KCNH2) [2]) |
| --- | --- | --- |
| O=C(NC1CCN(Cc2ccccc2)CC1)c1cc(C(=O)NC2CCN(Cc3ccccc3)CC2)cc(C(=O)NC2CCN(Cc3ccccc3)CC2)c1 | 39% | -2% |
| CCN1CCN(c2cc(C)c3cc(NC(=O)c4ccc(OC)c(OC)c4)ccc3n2)CC1 | 63% (active) | 15% |
| Fc1ccc2[nH]c3c(NCCCN4CCOCC4)ncnc3c2c1 | 77% (active) | 24% |
| CC(=O)Nc1nnc(SCc2c(C)cc(C(C)(C)C)cc2C)s1 | 6% (inactive) | 0% |
| Cc1ccc(Cl)cc1N1CCN(CCCNC(=O)C2CCN(c3nc4ccccc4[nH]3)CC2)CC1 | 99% | 54% |
| COc1ccc(-c2cn3c(C(=O)Nc4ccccc4Cl)c(-c4ccccc4)c4c3n2CCCC4)cc1 | 56% (active) | 17% |
| COc1ccc(C(=O)Nc2nonc2-c2ccc(OC)c(OC)c2)cc1Cl | 9% (inactive) | 7% |
| O=C(Nc1ccc(CN2CCOCC2)cc1)c1ccc(-c2cc(Cl)ccc2Cl)o1 | 88% (active) | 8% |
| Oc1ccc2ccccc2c1CNc1nc2ccccc2[nH]1 | 21% (inactive) | -5% |
| COc1ccc(C2NCCc3c2[nH]c2ccccc32)cc1CN1CCN(c2ccc(F)cc2)CC1 (stereo unspecified) | 113% (active) | 18% |
| Cc1cccc(Nc2nc(N)c3ccccc3n2)c1 | 49% | 15% |
| COc1cccc(C(=O)Nc2ccc(-c3nc4ccccc4[nH]3)cc2)c1 | 5% (inactive) | 4% |
| CCn1c(CN2CCN(Cc3ccccc3)CC2)nc2cc(NC(=O)c3cccs3)ccc21 | 100% | 71% |
| O=C(NC1CCN(Cc2ccccc2)CC1)c1cc(-c2cccnc2)nc2ccc(Cl)cc12 | 86% (active) | 18% |
| O=C1c2ccc3c4c(ccc(c24)C(=O)N1CCCCO)C(=O)N(CCCCO)C3=O | 37% | 3% |
| CCN(Cc1ccccc1)C1CCN(Cc2cc(Br)ccc2O)CC1 | 96% (active) | 18% |
| Nc1ccc(-c2nc3cc(Oc4ccc(Oc5ccc6[nH]c(-c7ccc(N)cc7)nc6c5)cc4)ccc3[nH]2)cc1 | 23% (inactive) | 18% |
| Cc1ccc(C)c(Cn2c(N3CCC(C(=O)NCc4cccs4)CC3)nc3ccccc32)c1 | 84% (active) | 16% |
| CCOc1cccc(C(=O)Nc2ccc(-c3nc4ccccc4[nH]3)cc2)c1 | -7% (inactive) | 0% |
| CC1CCN(Cc2c(O)ccc3cc(-c4nc5ccccc5s4)c(=O)oc23)CC1 | 10% (inactive) | -3% |
| Cc1cc(N(C)C)nc(Nc2ccc(NC(=O)Nc3ccccc3)cc2)n1 | -1% (inactive) | 2% |
| Clc1cc(Br)ccc1-c1ccc(CNCC2CCNCC2)o1 | 83% (active) | 16% |
| COc1ccc(C2C(C(=O)Nc3cccc(OC)c3)c3ccccc3C(=O)N2C2CCCCC2)cc1 (stereo unspecified) | 70% (active) | 4% |
| CCN(CC)c1ccc(NC(=O)c2cccs2)cc1 | 1% (inactive) | -1% |
| COc1ccc(-c2nonc2NC(=O)c2cccc(Cl)c2)cc1OC | -4% (inactive) | 4% |

| Compound | inhibition at 11.1 µM (hERG (Kv11.1, KCNH2) [1]) | inhibition at 1.1 µM (hERG (Kv11.1, KCNH2) [2]) |
| --- | --- | --- |
| Cc1cc(NC(=O)c2ccc(-c3ccccc3)cc2)no1 | 12% (inactive) | -2% |
| COc1cccc(-c2nn(C)c3sc(C(=O)NCCN4CCN(c5ccccc5F)CC4)cc23)c1 | 91% (active) | 21% |
| Oc1ccccc1CNCC12CC3CC(CC(C3)C1)C2 | 41% | 20% |
| CNCCCNc1ccnc2cc(Cl)ccc12 | 21% (inactive) | -1% |
| COc1cc(-c2nc(-c3ccccc3)c(-c3ccccc3)[nH]2)cc(OC)c1O | 18% (inactive) | 11% |
| COc1ccccc1CNC(=O)CCn1c(=O)[nH]c2ccsc2c1=O | 5% (inactive) | -1% |
| O=C(Nc1ccc(N2CCN(Cc3ccccc3)CC2)cc1)c1cccs1 | 32% | 12% |
| COc1ccc(Br)cc1C1Nc2ccc3ccccc3c2C2=C1C(=O)CC(c1ccccc1)C2 (stereo unspecified) | 5% (inactive) | -2% |
| O=C(Nc1ccc(-c2nc3cc4ccccc4cc3[nH]2)cc1)c1cccc(Br)c1 | -2% (inactive) | -1% |
| Cc1ccc(-c2nc3ccccc3o2)cc1NCc1cc(Cc2ccccc2)ccc1O | 10% (inactive) | 11% |
| Cc1ccc(Nc2nc(N)c3ccccc3n2)cc1Cl | 85% (active) | 5% |
| O=C(Nc1ccc(N2CCCCC2)c(Cl)c1)c1ccc(Br)o1 | 41% | -3% |
| Cc1cc(C)c2nc(N3CCC(C(=O)NCCCN4CCC(N5CCCCC5)CC4)CC3)sc2c1 | 60% (active) | 18% |
| CC1CCN(Cc2ccc(NC(=O)c3cc4ccc5cccnc5c4[nH]3)cc2)CC1 | 101% | 64% |
| Cc1cc(Nc2ccc(Cl)cc2)n2nc(C(F)(F)F)nc2n1 | 59% (active) | 19% |
| Oc1c2c(nc3cc(-c4ccccc4)nn13)CCCC2 | -2% (inactive) | 2% |
| CCOC(=O)C1CCN(C(=O)CN2C(=O)c3ccccc3C2c2c[nH]c3ccccc23)CC1 (stereo unspecified) | 18% (inactive) | -9% |
| CCCc1c(CC)c(=N)c2ccccc2n1C | 26% | 0% |
| CCOC(=O)c1cnc2c(C)cc(C)cc2c1Nc1ccc(OC)c(OC)c1 | 18% (inactive) | 26% |
| CCN(CC)S(=O)(=O)c1ccc(-c2csc(Nc3ccc(C)c(C)c3)n2)cc1 | -3% (inactive) | -7% |
| CCCn1c(=N)c(C(=O)NC2CCCCC2)cc2c(=O)n3cccc(C)c3nc21 | 105% | 63% |
| CCN1CCN(c2c(C(=O)c3ccccc3)cnc3cc(OC)c(OC)cc23)CC1 | 40% | 36% |
| CC(C)(C)c1ccc(C2CC3=Nc4ccccc4N(C(=O)c4ccccc4Cl)C(c4ccc(F)cc4)C3=C(O)C2)cc1 (stereo unspecified) | 88% (active) | 30% |
